Source: patent US20230172966A1, “COMPOSITION FOR THE PREVENTION AND TREATMENT OF FOLATE AND/OR VITAMIN B12 DEFICIENCY CONDITIONS, PARTICULARLY HYPERHOMOCYSTEINEMIA” (INPHA RESEARCH S.R.L., priority 2020, published 2023)

Assays:
[1] = Gastric Simulated Fluid (GSF) Test; type: physicochemical
Experimental: Gastric Simulated Fluid (GSF) Test.
For all the experiments, physiological gastric conditions were reproduced taking into account the volume of gastric fluid on an empty stomach (35-40 mL) (Mudie D M et al. Quantification of gastrointestinal liquid volumes and distribution following a 240 mL dose of water in the fasted state. Mol Pharm. 2014 Sep. 2; 11(9):3039-47) and the fact that in the stomach, the salt concentration is different from that of blood plasma (0.25% vs 0.9%) (Sandra Klein. The Use of Biorelevant Dissolution Media to Forecast the In Vivo Performance of a Drug. AAPS J. 2010 September; 12(3): 397-406).
The effect of the alkalizing agent on gastric pH was simulated in vitro by preparing a 0.2% saline solution of NaCl and bringing the pH of the solution to around 1.2-2 with 37% hydrochloric acid diluted 1:5.
GSF was prepared using the components in table 1, all tests were performed simulating body temperature (37° C.) and performed in triplicate.
400 ml of GSF was stirred with magnetic stirrer and settled at 37° C. and the three-point digital pH meter was applied. 40 mg of Folic Acid was added to this solution.
The bright orange dispersion was stirred for 5 minutes at 200 rpm and then the stirring was stopped.
The same experiment was repeated adding 30 mg of Zinc Oxide to the same amount of folic acid. […] Such a pH was maintained in the range 5.0-5.5 also by simulating physiological acid secretion, combining 2 ml of 0.1 M HCl every 15 minutes for a total of 60 minutes.

[2] = non-ionized carboxylic acid form, in contact with gastric fluid (pH 1.5-2.0 empty, 3.5-4.5 full stomach); cited from earlier work

SMILES | pH recorded in GSF after stirring ([1]; 30 mg Zinc Oxide + 40 mg folic acid in 400 ml GSF (initial pH 1.2-2), 37° C., after 5 minutes at 200 rpm) | pH maintained under simulated physiological acid secretion ([1]; 30 mg Zinc Oxide + 40 mg folic acid in 400 ml GSF, 2 ml of 0.1 M HCl every 15 minutes for a total of 60 minutes) | water solubility [2] [mg/mL] | observation of folic acid solubility/precipitation in GSF ([1]; 40 mg Folic Acid alone in 400 ml GSF pH 1.2-2, 37° C., stirred 5 minutes at 200 rpm, observed after 10 minutes) | observation of folic acid dissolution in GSF with Zinc Oxide ([1]; 40 mg folic acid + 30 mg Zinc Oxide in 400 ml GSF, 37° C., stirred 5 minutes at 200 rpm)
[O]=[Zn] [Zinc Oxide] | 5.2 | 5.0-5.5 |  |  | 
Nc1nc2ncc(CNc3ccc(C(=O)N[C@@H](CCC(=O)O)C(=O)O)cc3)nc2c(=O)[nH]1 [folic acid, pteroyl(mono)-glutamic acid] |  |  | < 0.01 | complete precipitation | translucent orange solution in the absence of precipitation
